Earlier results as cited in paper PMC11340619 (Redox Biology, 2024).

System: hepatic I/R injury
Conditions: in mice; NRF2 agonist treatment; ref [14],[15]

Structure (SMILES)	hepatic I/R injury
C[S+]([O-])CCCCN=C=S (centres unmarked) [sulforaphane]	alleviate hepatic I/R injury in mice
C=C(CC(=O)O)C(=O)O [itaconate]	alleviate hepatic I/R injury in mice
